Data reported in PubChem BioAssay (NCI).
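Briefly, cells in 96-well plates were exposed to five compound concentrations for 48 h, and endpoints were estimated by linear interpolation. Abbreviation: GI50, concentration required for 50% inhibition of growth. TGI denotes the concentration required for complete inhibition of growth.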

Tests used:
Assay in all cases: inhibition of tumour cell growth, NCI panel, 48 h
MOLT-4 leukemia = system: MOLT-4 leukemia
NCI-H23 lung = system: NCI-H23 lung
T-47D breast = system: T-47D breast
SK-MEL-28 melanoma = system: SK-MEL-28 melanoma
SNB-19 CNS = system: SNB-19 CNS
A498 renal = system: A498 renal
HCT-116 colon = system: HCT-116 colon
CAKI-1 renal = system: CAKI-1 renal
MALME-3M melanoma = system: MALME-3M melanoma
CCRF-CEM leukemia = system: CCRF-CEM leukemia

SMILES	GI50 (MOLT-4 leukemia)	TGI (MOLT-4 leukemia)	GI50 (NCI-H23 lung)	TGI (NCI-H23 lung)	GI50 (T-47D breast)	TGI (T-47D breast)	GI50 (SK-MEL-28 melanoma)	TGI (SK-MEL-28 melanoma)	GI50 (SNB-19 CNS)	TGI (SNB-19 CNS)	GI50 (A498 renal)	TGI (A498 renal)	GI50 (HCT-116 colon)	TGI (HCT-116 colon)	GI50 (CAKI-1 renal)	TGI (CAKI-1 renal)	GI50 (MALME-3M melanoma)	TGI (MALME-3M melanoma)	GI50 (CCRF-CEM leukemia)	TGI (CCRF-CEM leukemia)
CC(=O)N1CCN(CCOc2ccc(C3CCN(C4=Nn5c(nnc5C(F)(F)F)CC4)CC3)cc2)CC1	27 µM	> 100 µM	11.4 µM	> 100 µM	5.21 µM	> 100 µM	21.4 µM	> 100 µM	22.4 µM	> 100 µM	12.8 µM	> 89.8 µM	15.7 µM	> 100 µM	3.27 µM	> 100 µM	9.89 µM	99.6 µM	20.4 µM	> 100 µM
COC(=O)[C@]12CC[C@@H](C)[C@H](C)[C@@H]1C1=CC[C@@H]3[C@@]4(C)CC(=O)[C@H](OC(=O)c5ccco5)[C@@]5(C)COC(=C45)C[C@@]3(C)[C@]1(C)CC2	0.669 µM	> 100 µM	0.936 µM	> 100 µM	0.667 µM	> 100 µM	0.579 µM	> 100 µM	3.57 µM	> 100 µM	13.3 µM	> 100 µM	0.337 µM	> 100 µM	0.729 µM	> 100 µM	0.556 µM	> 100 µM	0.767 µM	> 100 µM
O=C(CCl)Nc1cc(O)c2c(c1)C(=O)c1cccc(O)c1C2=O	0.321 µM	1.76 µM	1.13 µM	3.45 µM	1.19 µM	3.61 µM	2.79 µM	8.95 µM	1.87 µM	4.15 µM	3.17 µM	36.6 µM	0.646 µM	2.12 µM	1.56 µM	2.93 µM	0.897 µM	2.58 µM	0.314 µM	3.24 µM
O=C(Nc1ccc(I)cc1F)c1cc(I)ccc1O	0.965 µM	3.5 µM	0.531 µM	2.25 µM	0.649 µM	2.94 µM	0.435 µM	2.84 µM	0.664 µM	> 100 µM	0.324 µM	1.24 µM	0.768 µM	3.35 µM	0.492 µM	4.11 µM	0.32 µM	1.52 µM	0.943 µM	> 37.6 µM
CN1CCN(CCOc2ccc(-c3cnc4c(-c5ccc(F)cc5)cnn4c3)cc2)CC1	1.56 µM	3.59 µM	1.73 µM	3.25 µM	1.49 µM	3.86 µM	1.87 µM	3.62 µM	1.66 µM	3.39 µM	1.64 µM	4.89 µM	1.55 µM	3.05 µM	1.52 µM	2.89 µM	1.62 µM	3.13 µM	1.55 µM	3.82 µM
COc1cc([C@@H]2c3cc4c(cc3C(OC3O[C@@H]5COC(C)O[C@H]5[C@H](O)[C@H]3O)C3COC(=O)[C@@H]32)OCO4)cc(OC)c1O (stereo not given in full)	0.0948 µM	0.882 µM	0.652 µM	6.88 µM	0.331 µM	> 33.1 µM	2.12 µM	> 34.6 µM	0.836 µM	> 47.9 µM	0.605 µM	14 µM	1.27 µM	> 50 µM	1.83 µM	> 28.1 µM	1.21 µM	14.1 µM		
CCOc1cc(C(C)(C)C)ccc1C1=N[C@@](C)(c2ccc(Cl)cc2)[C@@](C)(c2ccc(Cl)cc2)N1C(=O)N1CCN(CCS(C)(=O)=O)CC1	0.751 µM	3.96 µM	4.69 µM	20.2 µM	3.7 µM	57.3 µM	3.75 µM	14.3 µM	4.4 µM	23.2 µM	0.655 µM	5.27 µM	0.804 µM	4.73 µM	0.81 µM	6.48 µM	0.535 µM	6.07 µM	2.6 µM	7.45 µM
CCOC(=S)SCN1C(=O)c2ccccc2S1(=O)=O	32.7 µM	> 100 µM	12.6 µM	27.8 µM	24.2 µM	80.5 µM	3.42 µM	15 µM	28.7 µM	88.8 µM	19.8 µM	42 µM	13.6 µM	26.5 µM	13 µM	27.6 µM	1.94 µM	8.76 µM	16.3 µM	39.4 µM
CCCCCCNC(=O)Oc1ccc(/C(=C(\C)c2ccccc2)c2ccc(OCCN(CC)CC)cc2)cc1	1.78 µM	7.79 µM	5.17 µM	11.6 µM	1.07 µM	8.17 µM	3.12 µM	9.3 µM	4.89 µM	11.1 µM	6.93 µM	13.6 µM	2.08 µM	7.39 µM	2.74 µM	8.92 µM	3.59 µM	10.1 µM	2.22 µM	11.6 µM
O=C(NCCCCOCC#Cc1ccccc1C#CCS(=O)(=O)c1ccccc1)c1cc2ccccc2[nH]1		> 10.1 µM	7.25 µM	16 µM	12.3 µM	> 37.5 µM	9.82 µM	26.7 µM	15.1 µM	> 50 µM	25.8 µM	> 50 µM	9.63 µM	26.6 µM	14.9 µM	> 38.2 µM	7.85 µM	24.1 µM		
COc1cc(/C=N\O)nc(-c2ccccn2)c1		> 100 µM		> 100 µM		> 100 µM		> 100 µM		> 100 µM		9.22 µM		> 100 µM		28 µM		> 100 µM		> 100 µM
Oc1c(CN2CCOCC2)cc(COCc2ccccc2)c2cccnc12	2.57 µM	17.7 µM	3.25 µM	> 100 µM	2.63 µM	> 100 µM	2.79 µM	> 100 µM	4.28 µM	> 100 µM	16.5 µM	> 100 µM	2.82 µM	> 100 µM	0.555 µM	> 100 µM	2.84 µM	> 100 µM	0.494 µM	> 100 µM
